Laboratory results from patent US6069172A, “(R)-2-(3-benzoylphenyl) propionic acid salts and pharmaceutical preparations containing them” (priority 1998, dated 2000).
Counter-ions that a name gives are not always drawn. Like-named read-outs stand apart in the source and are kept apart here.

Experiments:
[1] = test system: carrageenin-induced pleural exudate; PMN cell migration; details: oral, cited from earlier work; for migration of cells into the pleural cavity: PMN cells vs monocytes, thought in 1975
[2] = gastric ulcer-inducing properties in rats (ulcer score); assay type: in vivo; details: rat; for ulcer score: 40 mmoles/kg
Description: Guinea-pigs are a species naturally resistant to the gastrolesive action of NSAIDs, so that it is not possible to compare the two enantiomers in respect to this parameter in this species, unless using very high doses, having no predictive value. To this purpose, rats are necessarily, again, the chosen species, although the least suitable. […] The differences among the enantiomers and the racemate were statistically significant starting from the dose of […]: at this dose an "ulcer score" of 2 was evaluated for the (R) enantiomer, compared with "ulcer scores" of 3 and 4 for the racemate and the (S) enantiomer, respectively.

hyperalgesia = assay: animal or person; details: for inhibitory effect on hyperalgesia: 25 to 750 mmoles/kg
Description: In order to predict the therapeutic effect of the racemates in men, it is necessary to know how much the single enantiomers contribute to the global activity, using experimental models excluding metabolic bio-conversion. […] This model allows the contemporary evaluation of the inhibition of oedema formation and of hyperalgesia.

oedema formation [3] = details: for inhibition of oedema formation: 25 to 750 mmoles/kg
[4] = test system: mouse peritoneal macrophages; assay: lipopolysaccharide-stimulated IL-1b release from mouse peritoneal macrophages; assay type: cell-based; details: for minimal effective concentration: Mus musculus, Peritoneal macrophage, read-out: concentration of statistically significant stimulation of IL-1b formation
[5] = test system: interleukin IL-8 production; details: reduced from 53.8 pg/ml, p<0.1, cited from earlier work
[6] = test system: ultra-violet radiation-induced epidermal erythema; details: topic; guinea pigs; cited from earlier work
TXB2 synthesis = TXB2 synthesis inhibition in human blood; assay type: cell-based; details: index of platelet antiaggregating properties
[7] = men, cited from earlier work
[8] = guinea-pigs; cited from earlier work
[9] = rats; in words; cited from earlier work
pain perception = details: men; compared with (S) enantiomers; cited from earlier work
human PMN leukocytes = assay: [Ca^++ ]i increase induced by IL-8 in human PMN leukocytes; assay type: cell-based; details: IL-8 50 ng/ml, % of basal [Ca^++ ]i (basal 100%), no drug 302 ± 11
Method: The results reported in Table 1 are cumulative data obtained from 8 trials (8 donors who gave their explicit consent, 3 to 7 cells per specimen). […] The responses, expressed as percent of basal value of [Ca^++ ]i, are the mean from all responsive cells; standard error of the mean (±SEM) and number of replications (in brackets) are also reported. […] IL-8 concentration was 50 ng/ml.

[10] = test system: Ca^++ channels, human PMN neutrophils; assay: competition study with lanthanum ions: [Ca^++ ]i increase induced by IL-8, role of Ca^++ channels; assay type: cell-based; details: ketoprofen L-lysine salt 10^-8 M; La^+++ 10 μM; IL-8 50 ng/ml; % of basal (100%)
Method: Results reported in Table 2 are the cumulative values from 3 trials (3 donors, 3-7 cells per specimen). […] Responses are expressed as percent of basal [Ca^++ ]i value and are the mean from the values of all responsive cells. Standard error of the mean (SEM) and number of replications (in brackets) are also reported. […] The concentration of ketoprofen L-lysine salt was 10^-8 M, that of La^+++ 10 μM, and that of IL-8 50 ng/ml.

Neutrophils = details: 10^-6 M, 10 min 37° C; FIG. 2, ** p<0.01
Description: Results are expressed as the mean ±SD from 3 separated trials (** p<0.01 against each group).

human PMN neutrophils [11] = assay: [Ca^++ ]i increase induced by FMLP in human PMN neutrophils; assay type: cell-based; details: FLMP 10^-7 M; % of basal (100%); no treatment 208 ± 7
Description: (§1) Results are expressed as percent of the basal value of [Ca^++ ]i and are the mean from the values of all responsive cells. Standard error of the mean (SEM) and number of replications (n, in brackets) are also reported.

human PMN neutrophils [12] = assay: [Ca^++ ]i increase induced by C5a in human PMN neutrophils; assay type: cell-based; details: for C5a [Ca^++ ]i (% ± SEM): C5a 10^-8 M, % of basal (100%), no treatment 198 ± 10; for percent of non responsive cells: C5a stimulation and treatment with the L-lysine salts
Description: as §1

[13] = test system: mouse peritoneal macrophages; assay: lipopolysaccharide-stimulated TNF-a release from mouse peritoneal macrophages; assay type: cell-based; details: LPS-stimulated; 10^-9 -10^-5 M
oedema formation [14] = assay: animal or person; details: Cavia porcellus, read-out: dose from which oedema inhibition is statistically significant
human PMN neutrophils [15] = assay: IL-8-stimulated human PMN neutrophil degranulation (elastase release), FIG. 1; assay type: cell-based; details: IL-8 50 ng/ml, cytoclasin B 10^-5 M, 30 min 37° C; FIG. 1, ** p<0.05 against IL-8
Method: Human PMN neutrophils (10^7 /ml) were stimulated in the presence of cytoclasin B (10^-5 M) by adding IL-8 (50 ng/ml) and incubating them for 30 min at 37° C. La^+++ was added 5 min before IL-8 and the lysine salts of (R)- and (S)-ketoprofen 15 min before IL-8. Degranulation was evaluated based on the amount of elastase released in the cell-free surnatant and is expressed as DOD×10^3 /min.

PMN neutrophils = details: FLMP-stimulated vs other agonist-stimulated; cited from earlier work
MCP-1 and IL-8 release = details: comparative study; cited from earlier work
neutrophil = details: Ca^++ ionophore and FLMP; cited from earlier work
human synovial cells = details: stimulated by interleukin-1 and TNF-a; cited from earlier work

CC(C(=O)O)c1ccc(-c2ccccc2)c(F)c1 (racemic) [flurbiprofen, 3-fluoro-4-phenylhydratropic acid]
migration of cells into the pleural cavity [1]: inhibit the migration of PMN cells, but not that of monocytes | carrageenin-induced formation of pleural exudate [1]: inhibited

CC(C(=O)O)c1cccc(C(=O)c2ccccc2)c1 (racemic) [racemic ketoprofen L-lysine salt]
ulcer score [2]: 3 | inhibitory effect on hyperalgesia (hyperalgesia): constantly intermediate between those evaluated for the two enantiomers | inhibition of oedema formation (oedema formation [3]): constantly intermediate between those evaluated for the two enantiomers | minimal effective concentration [4]: 10 µM

CC(C(=O)O)c1cccc(C(=O)c2ccccc2)c1 (racemic) [racemic ketoprofen]
interleukin IL-8 production ([5]; 100 mg/kg): 16.9 pg/mL | interleukin IL-8 production ([5]; 200 mg/kg): 22.4 pg/mL | Protection, UV radiation-induced epidermal erythema [6]: 56.1±3.1% | IC50 (TXB2 synthesis): 420 ± 40 µM

C[C@@H](C(=O)O)c1ccc(-c2ccccc2)c(F)c1 [(R)-flurbiprofen, 3-fluoro-4-phenylhydratropic acid]
conversion of (R) into (S) enantiomer [7]: < 5% | conversion of (R) into (S) enantiomer [8]: < 5% | conversion of (R) into (S) enantiomer [9]: completely converted | inhibition of pain perception (pain perception): efficacy at least similar to that of the (S) enantiomers

CC(C)Cc1ccc([C@@H](C)C(=O)O)cc1 [(R)-ibuprofen, p-isobutylhydratropic acid]
conversion of (R) into (S) enantiomer ([7]; in words): nearly completely converted | conversion of (R) into (S) enantiomer [9]: nearly completely converted

C[C@@H](C(=O)O)c1cccc(C(=O)c2ccccc2)c1 [(R)-ketoprofen L-lysine salt, (R)-2-(3-benzoylphenyl)propionic acid]
[Ca^++ ]i (% ± SEM) (human PMN leukocytes; drug 10^-6 M): 182 ± 15% | [Ca^++ ]i (% ± SEM) (human PMN leukocytes; drug 10^-7 M): 193 ± 10% | [Ca^++ ]i (% ± SEM) (human PMN leukocytes; drug 10^-8 M): 188 ± 8% | [Ca^++ ]i (% ± SEM) (human PMN leukocytes; drug 10^-9 M): 364 ± 29% | La^+++ + IL-8 [Ca^++ ]i (% ± SEM) [10]: 176 ± 7% | inhibitory effect on IL-8-stimulated chemotactic migration (Neutrophils): specific inhibitory effects | FMLP [Ca^++ ]i (% ± SEM) (human PMN neutrophils [11]): 193 ± 6% | ulcer score [2]: 2 | ulcer-inducing properties ([2]; compared with (S) enantiomer): less ulcer-inducing properties | C5a [Ca^++ ]i (% ± SEM) (human PMN neutrophils [12]): 153 ± 4% | percent of non responsive cells (human PMN neutrophils [12]): 50% | inhibitory effect on hyperalgesia (hyperalgesia): marked, dose-dependent inhibitory effect on hyperalgesia | doses with marked, dose-dependent inhibition of hyperalgesia (hyperalgesia; maximal at the highest dose): 75 to 250 mmol/kg | effect on TNF-a release [13]: completely ineffective | inhibition of oedema formation (oedema formation [3]): significantly inhibited oedema formation | minimal effective dose (oedema formation [14]): 250000 µmol/kg | effect on IL-1b release ([4]; LPS-stimulated, 10^-9 -10^-5 M): completely ineffective | inhibitory effect on human PMN neutrophil degranulation (elastase release) (human PMN neutrophils [15]): specific inhibitory effects

C[C@H](C(=O)O)c1cccc(C(=O)c2ccccc2)c1 [(S)-ketoprofen L-lysine salt]
[Ca^++ ]i (% ± SEM) (human PMN leukocytes; drug 10^-6 M): 163 ± 18% | [Ca^++ ]i (% ± SEM) (human PMN leukocytes; drug 10^-7 M): 199 ± 13% | [Ca^++ ]i (% ± SEM) (human PMN leukocytes; drug 10^-8 M): 183 ± 5% | [Ca^++ ]i (% ± SEM) (human PMN leukocytes; drug 10^-9 M): 289 ± 19% | La^+++ + IL-8 [Ca^++ ]i (% ± SEM) [10]: 166 ± 7% | inhibitory effect on IL-8-stimulated chemotactic migration (Neutrophils): specific inhibitory effects | FMLP [Ca^++ ]i (% ± SEM) (human PMN neutrophils [11]): 214 ± 13% | ulcer score [2]: 4 | C5a [Ca^++ ]i (% ± SEM) (human PMN neutrophils [12]): 150 ± 4% | percent of non responsive cells (human PMN neutrophils [12]): 50% | inhibitory effect on hyperalgesia (hyperalgesia): only a slight inhibitory effect on hyperalgesia | minimal effective dose (hyperalgesia; Cavia porcellus, read-out: dose with statistically significant inhibition of hyperalgesia): 750000 µmol/kg | dose of maximal effect on oedema formation (oedema formation [3]; dose range 25 to 750 mmoles/kg): 250 mmol/kg | minimal effective dose (oedema formation [14]): 75000 µmol/kg | minimal effective concentration [4]: 10 µM | inhibitory effect on human PMN neutrophil degranulation (elastase release) (human PMN neutrophils [15]): specific inhibitory effects

C[C@H](C(=O)O)c1cccc(C(=O)c2ccccc2)c1 [(S)-ketoprofen]
Protection, UV radiation-induced epidermal erythema [6]: 73.4±4.0% | IC50 (TXB2 synthesis): 160 ± 40 µM

CC(C)C[C@H](NC(=O)OCC1c2ccccc2-c2ccccc21)C(=O)O [NPC-15669, N-Fmoc-L-leucine]
[Ca^++ ]i increase in PMN neutrophils (PMN neutrophils): inhibited FLMP-stimulated, but not other agonist-stimulated [Ca^++ ]i increase

C[C@@H]1C[C@H]2[C@@H]3CCC4=CC(=O)C=C[C@]4(C)[C@@]3(F)[C@@H](O)C[C@]2(C)[C@@]1(O)C(=O)CO [dexamethasone]
inhibition of release of MCP-1 and IL-8 (MCP-1 and IL-8 release): in an optimal manner

CC(C(=O)O)c1cccc(Oc2ccccc2)c1 (stereo not drawn) [fenofren]
migration of cells into the pleural cavity [1]: inhibit the migration of PMN cells, but not that of monocytes | carrageenin-induced formation of pleural exudate [1]: inhibited

O=C(O)c1ccccc1Nc1cccc(C(F)(F)F)c1 [flufenamic acid]
inhibition of neutrophil activation / blockade of Ca^++ ion entry (neutrophil): inhibition of neutrophil activation

COc1ccc2c(c1)c(CC(=O)O)c(C)n2C(=O)c1ccc(Cl)cc1 [indomethacin]
IL-8 production in human synovial cells (human synovial cells): not inhibited | migration of cells into the pleural cavity [1]: inhibit the migration of PMN cells, but not that of monocytes | carrageenin-induced formation of pleural exudate [1]: inhibited

CN(Cc1cnc2nc(N)nc(N)c2n1)c1ccc(C(=O)N[C@@H](CCC(=O)O)C(=O)O)cc1 [metotrexate]
inhibition of release of MCP-1 and IL-8 (MCP-1 and IL-8 release): in a sub-optimal manner

COc1ccc2cc([C@H](C)C(=O)O)ccc2c1 [naproxen]
IL-8 production in human synovial cells (human synovial cells): not inhibited

COC(=O)C1=C(C)NC(C)=C(C(=O)OC)C1c1ccccc1[N+](=O)[O-] [nifedipine]
inhibition of neutrophil activation / blockade of Ca^++ ion entry (neutrophil): completely inactive

CN1C(C(=O)Nc2ccccn2)=C(O)c2ccccc2S1(=O)=O [piroxicam]
IL-8 production in human synovial cells (human synovial cells): not inhibited

O=C([O-])CC(S)C(=O)[O-].[Na+].[Na+] (stereo not drawn) [sodium thiomalate]
inhibition of release of MCP-1 and IL-8 (MCP-1 and IL-8 release): in a sub-optimal manner

CN1C(C(=O)Nc2nccs2)=C(O)c2ccccc2S1(=O)=O [sudoxicam]
migration of cells into the pleural cavity [1]: inhibit the migration of PMN cells, but not that of monocytes | carrageenin-induced formation of pleural exudate [1]: inhibited

CC(C(=O)O)c1ccc(C(=O)c2ccccc2)s1 (stereo not drawn) [thioprofenic acid]
IL-8 production in human synovial cells (human synovial cells): not inhibited

Cc1c(Cl)cccc1Nc1ccccc1C(=O)O [tolfenamic acid]
inhibition of neutrophil activation / blockade of Ca^++ ion entry (neutrophil): inhibition of neutrophil activation
